Results as given in ChEMBL document CHEMBL1201862, “PubChem BioAssay data set” (2004).
One block for each compound: values may come before it. Activity calls are given as the source filed them.

Key:
Large T antigen = Large T antigen (Simian virus 40, UniProt P03070); format: functional, Betapolyomavirus macacae;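 also: Confirmatory-stage PubChem screen for compounds that inhibit SV40 T antigen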
[1] = molecular target: T1, Alkaline phosphatase, tissue-nonspecific isozyme (Homo sapiens, UniProt P05186); assay: TNAP enzyme activators, dose response, selectivity assay for mouse IAP activator project, biochemical, TNAP isozyme, mouse IAP uHTS hits (AID 488880); format: functional
T1 sequence (P05186 whole entry): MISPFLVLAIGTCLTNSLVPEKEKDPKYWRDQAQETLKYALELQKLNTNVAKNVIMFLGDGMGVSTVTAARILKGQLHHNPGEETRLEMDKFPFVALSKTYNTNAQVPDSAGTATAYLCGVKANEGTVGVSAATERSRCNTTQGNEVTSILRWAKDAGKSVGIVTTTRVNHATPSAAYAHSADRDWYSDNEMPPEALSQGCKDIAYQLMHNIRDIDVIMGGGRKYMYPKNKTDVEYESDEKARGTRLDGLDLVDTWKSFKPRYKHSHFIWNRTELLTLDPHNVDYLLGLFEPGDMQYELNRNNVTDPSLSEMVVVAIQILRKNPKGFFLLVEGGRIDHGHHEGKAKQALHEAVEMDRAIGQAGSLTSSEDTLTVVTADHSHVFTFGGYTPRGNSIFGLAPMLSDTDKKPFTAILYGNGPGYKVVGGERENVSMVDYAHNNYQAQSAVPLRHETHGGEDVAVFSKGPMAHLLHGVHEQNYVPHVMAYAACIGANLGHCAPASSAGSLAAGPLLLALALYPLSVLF

[2] = molecular target: Intestinal-type alkaline phosphatase (Homo sapiens, UniProt P09923); assay: activation of human intestinal alkaline phosphatase – biochemical, dose response (AID 488873); format: functional
[3] = molecular target: Intestinal-type alkaline phosphatase (Mus musculus, UniProt P24822); assay: mouse intestinal alkaline phosphatase activators, dose response, biochemical, luminescence, uHTS hits (AID 488783); format: functional
[4] = molecular target: T2, Tyrosine-protein phosphatase non-receptor type 22 (Homo sapiens, UniProt Q9Y2R2); assay: LYP (PTPN22) phosphatase inhibitor potency, SAR follow-up, biochemical, pCAP fluorogenic substrate, fluorescence, set 3 (AID 449727); format: functional
T2 sequence (Q9Y2R2 whole entry): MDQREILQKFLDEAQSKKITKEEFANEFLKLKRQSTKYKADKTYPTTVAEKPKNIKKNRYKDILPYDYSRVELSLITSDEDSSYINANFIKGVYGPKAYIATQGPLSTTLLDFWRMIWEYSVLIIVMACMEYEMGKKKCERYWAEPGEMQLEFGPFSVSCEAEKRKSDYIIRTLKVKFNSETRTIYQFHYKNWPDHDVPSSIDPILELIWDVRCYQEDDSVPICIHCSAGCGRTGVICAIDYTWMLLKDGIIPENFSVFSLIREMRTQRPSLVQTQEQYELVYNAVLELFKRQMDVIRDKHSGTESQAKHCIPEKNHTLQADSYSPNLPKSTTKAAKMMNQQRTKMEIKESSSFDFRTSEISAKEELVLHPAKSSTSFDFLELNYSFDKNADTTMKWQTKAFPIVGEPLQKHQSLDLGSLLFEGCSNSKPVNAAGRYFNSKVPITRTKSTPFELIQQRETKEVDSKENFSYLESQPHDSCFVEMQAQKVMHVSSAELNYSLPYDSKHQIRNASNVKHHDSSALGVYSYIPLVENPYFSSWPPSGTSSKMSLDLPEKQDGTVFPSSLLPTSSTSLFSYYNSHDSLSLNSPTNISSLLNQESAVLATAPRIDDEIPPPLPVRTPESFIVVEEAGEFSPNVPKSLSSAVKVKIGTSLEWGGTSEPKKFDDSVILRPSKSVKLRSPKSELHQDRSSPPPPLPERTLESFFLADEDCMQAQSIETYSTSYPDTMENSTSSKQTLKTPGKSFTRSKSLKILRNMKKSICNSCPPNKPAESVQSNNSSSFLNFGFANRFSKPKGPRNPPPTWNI

[5] = molecular target: T2, Tyrosine-protein phosphatase non-receptor type 22; assay: inhibitors of LYP phosphatase, biochemical, fluorescence intensity, uHTS (AID 1779)
[6] = molecular target: T2, Tyrosine-protein phosphatase non-receptor type 22; assay: LYP1 Fluorescent Assay using OMFP substrate for In Vitro dose response studies. [Related pubchem assays (depositor defined):AID1779, AID1784, AID435024]
[7] = molecular target: Tyrosine-protein phosphatase non-receptor type 12 (Homo sapiens, UniProt Q05209); assay: SAR Selectivity Analysis of small molecule inhibitors of PEST using pCAP in a fluorescence assay. [Related pubchem assays (depositor defined):AID1779, AID1784, AID2135]; format: functional
[8] = molecular target: T3, Tyrosine-protein phosphatase non-receptor type 7 (Homo sapiens, UniProt P35236); assay: HTS HePTP Fluorescent Assay using OMFP substrate for In Vitro dose response studies. [Related pubchem assays (depositor defined):AID1059, AID1077, AID1784, AID2068, AID2085, AID435032, AID521]; format: functional
T3 sequence (P35236 whole entry): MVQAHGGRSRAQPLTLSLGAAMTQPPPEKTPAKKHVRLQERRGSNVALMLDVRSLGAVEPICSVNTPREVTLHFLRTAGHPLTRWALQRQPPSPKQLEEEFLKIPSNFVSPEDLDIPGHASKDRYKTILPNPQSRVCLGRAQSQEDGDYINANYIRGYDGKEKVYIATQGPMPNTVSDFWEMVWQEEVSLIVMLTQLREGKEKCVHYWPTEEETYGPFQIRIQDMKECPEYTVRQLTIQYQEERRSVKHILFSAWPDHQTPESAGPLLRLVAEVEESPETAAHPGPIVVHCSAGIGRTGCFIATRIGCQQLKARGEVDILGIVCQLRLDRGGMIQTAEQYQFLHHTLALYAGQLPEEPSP

[9] = HEp-2 cell cytotoxicity, dose response, cytotoxicity control for RSV inhibitor project, HTS (AID 2410); format: functional; settings: human respiratory syncytial virus
[10] = molecular target: T2, Tyrosine-protein phosphatase non-receptor type 22; assay: PubChem AID 2135
[11] = molecular target: T2, Tyrosine-protein phosphatase non-receptor type 22; assay: PubChem AID 2140
[12] = molecular target: T4, Voltage-gated N-type calcium channel alpha-1B subunit/Amyloid beta A4 precursor protein-binding family A member 1 (Homo sapiens, UniProt Q00975+Q02410); format: protein assay
T4 sequence (Q00975 whole entry): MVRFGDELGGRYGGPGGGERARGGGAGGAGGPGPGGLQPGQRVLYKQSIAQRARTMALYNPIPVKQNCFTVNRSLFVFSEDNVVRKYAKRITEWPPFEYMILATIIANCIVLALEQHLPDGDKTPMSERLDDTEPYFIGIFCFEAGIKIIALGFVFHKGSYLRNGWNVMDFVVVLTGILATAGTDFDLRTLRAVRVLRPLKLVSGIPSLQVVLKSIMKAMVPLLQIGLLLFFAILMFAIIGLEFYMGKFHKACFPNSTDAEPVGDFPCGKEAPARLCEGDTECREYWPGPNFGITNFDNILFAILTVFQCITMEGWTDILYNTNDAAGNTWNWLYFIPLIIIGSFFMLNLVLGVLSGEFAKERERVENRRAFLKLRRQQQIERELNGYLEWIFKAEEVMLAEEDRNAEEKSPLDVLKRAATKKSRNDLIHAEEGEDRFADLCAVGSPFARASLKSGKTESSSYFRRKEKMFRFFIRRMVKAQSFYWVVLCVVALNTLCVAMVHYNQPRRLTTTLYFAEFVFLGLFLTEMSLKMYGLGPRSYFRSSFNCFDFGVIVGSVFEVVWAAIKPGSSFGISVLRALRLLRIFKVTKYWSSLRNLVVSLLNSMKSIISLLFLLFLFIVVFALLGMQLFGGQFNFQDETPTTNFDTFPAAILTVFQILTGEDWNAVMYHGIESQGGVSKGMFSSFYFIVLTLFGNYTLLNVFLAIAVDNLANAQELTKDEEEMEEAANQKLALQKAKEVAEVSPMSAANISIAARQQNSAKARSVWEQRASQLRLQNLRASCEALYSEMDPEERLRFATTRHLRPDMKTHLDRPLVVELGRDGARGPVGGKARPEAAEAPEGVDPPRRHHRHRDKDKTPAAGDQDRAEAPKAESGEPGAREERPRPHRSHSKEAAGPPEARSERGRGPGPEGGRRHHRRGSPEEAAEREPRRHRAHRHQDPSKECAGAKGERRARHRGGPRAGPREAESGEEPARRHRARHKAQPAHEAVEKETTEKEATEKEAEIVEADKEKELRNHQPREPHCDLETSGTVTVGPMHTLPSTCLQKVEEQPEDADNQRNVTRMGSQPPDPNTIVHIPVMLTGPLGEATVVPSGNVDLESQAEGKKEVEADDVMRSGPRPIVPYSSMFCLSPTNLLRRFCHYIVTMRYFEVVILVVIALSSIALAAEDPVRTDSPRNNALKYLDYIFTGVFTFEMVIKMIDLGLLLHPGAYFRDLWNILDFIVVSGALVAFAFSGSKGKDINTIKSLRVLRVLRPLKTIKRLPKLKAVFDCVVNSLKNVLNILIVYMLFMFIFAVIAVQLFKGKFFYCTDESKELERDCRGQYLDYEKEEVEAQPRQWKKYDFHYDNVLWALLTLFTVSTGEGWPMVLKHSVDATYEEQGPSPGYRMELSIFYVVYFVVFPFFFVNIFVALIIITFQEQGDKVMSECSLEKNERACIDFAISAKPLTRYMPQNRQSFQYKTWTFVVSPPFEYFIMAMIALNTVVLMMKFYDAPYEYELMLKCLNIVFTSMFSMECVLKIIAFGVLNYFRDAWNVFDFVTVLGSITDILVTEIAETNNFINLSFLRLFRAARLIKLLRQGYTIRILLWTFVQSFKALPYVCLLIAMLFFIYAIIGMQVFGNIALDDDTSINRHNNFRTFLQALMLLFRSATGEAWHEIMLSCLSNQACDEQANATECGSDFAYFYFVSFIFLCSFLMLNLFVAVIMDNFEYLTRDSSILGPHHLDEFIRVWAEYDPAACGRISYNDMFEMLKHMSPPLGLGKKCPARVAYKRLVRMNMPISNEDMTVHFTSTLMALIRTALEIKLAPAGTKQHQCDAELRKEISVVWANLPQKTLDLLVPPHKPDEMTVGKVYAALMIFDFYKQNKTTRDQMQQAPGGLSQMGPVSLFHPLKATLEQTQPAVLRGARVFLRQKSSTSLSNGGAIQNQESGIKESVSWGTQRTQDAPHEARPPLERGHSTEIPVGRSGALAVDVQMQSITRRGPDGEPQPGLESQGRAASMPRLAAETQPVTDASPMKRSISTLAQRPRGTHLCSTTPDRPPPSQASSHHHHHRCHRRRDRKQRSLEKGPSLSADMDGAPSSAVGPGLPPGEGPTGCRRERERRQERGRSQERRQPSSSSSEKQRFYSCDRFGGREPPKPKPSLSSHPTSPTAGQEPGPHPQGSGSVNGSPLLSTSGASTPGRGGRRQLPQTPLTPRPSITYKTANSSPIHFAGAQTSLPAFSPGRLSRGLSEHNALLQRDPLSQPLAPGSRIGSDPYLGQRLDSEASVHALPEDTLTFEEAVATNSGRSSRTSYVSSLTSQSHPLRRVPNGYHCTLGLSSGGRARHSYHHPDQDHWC
T4 sequence (Q02410 whole entry): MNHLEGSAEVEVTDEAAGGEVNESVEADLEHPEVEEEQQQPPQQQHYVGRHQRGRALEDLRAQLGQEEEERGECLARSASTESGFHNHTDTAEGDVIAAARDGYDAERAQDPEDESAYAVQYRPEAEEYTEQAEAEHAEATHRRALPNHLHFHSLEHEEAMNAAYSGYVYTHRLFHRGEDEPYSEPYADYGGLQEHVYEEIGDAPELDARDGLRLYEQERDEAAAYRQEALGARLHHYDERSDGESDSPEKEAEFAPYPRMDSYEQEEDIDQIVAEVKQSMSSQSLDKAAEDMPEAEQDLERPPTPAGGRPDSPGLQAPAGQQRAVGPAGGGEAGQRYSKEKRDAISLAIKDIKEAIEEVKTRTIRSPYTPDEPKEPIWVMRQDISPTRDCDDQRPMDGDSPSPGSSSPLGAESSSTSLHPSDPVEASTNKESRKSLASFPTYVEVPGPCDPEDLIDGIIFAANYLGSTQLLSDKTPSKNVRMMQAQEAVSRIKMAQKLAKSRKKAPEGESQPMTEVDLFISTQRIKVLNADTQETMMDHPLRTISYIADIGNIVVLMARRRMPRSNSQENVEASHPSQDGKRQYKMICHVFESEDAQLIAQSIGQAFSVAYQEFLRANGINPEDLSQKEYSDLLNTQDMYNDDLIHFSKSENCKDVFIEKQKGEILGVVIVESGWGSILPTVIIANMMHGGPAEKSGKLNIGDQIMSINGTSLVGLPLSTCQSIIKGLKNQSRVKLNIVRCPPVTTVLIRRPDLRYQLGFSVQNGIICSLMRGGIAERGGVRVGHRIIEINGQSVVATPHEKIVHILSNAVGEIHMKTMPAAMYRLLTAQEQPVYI

[13] = molecular target: T2, Tyrosine-protein phosphatase non-receptor type 22; format: functional
[14] = molecular target: T2, Tyrosine-protein phosphatase non-receptor type 22; assay: SAR LYP1 Fluorescent Assay using OMFP substrate for In Vitro dose response studies - Set 3. [Related pubchem assays (depositor defined):AID1779, AID1784, AID2140, AID2686]; format: functional
[15] = molecular target: T2, Tyrosine-protein phosphatase non-receptor type 22; format: functional; remark: listed apart in the source
[16] = molecular target: T4, Voltage-gated N-type calcium channel alpha-1B subunit/Amyloid beta A4 precursor protein-binding family A member 1; format: protein assay; remark: listed apart in the source
[17] = molecular target: T3, Tyrosine-protein phosphatase non-receptor type 7; format: functional
[18] = molecular target: T2, Tyrosine-protein phosphatase non-receptor type 22; assay: SAR LYP1 Fluorescent Assay using pCAP substrate for In Vitro dose response studies - Set 2. [Related pubchem assays (depositor defined):AID1779, AID1784, AID2135, AID449727]; format: functional
[19] = molecular target: T3, Tyrosine-protein phosphatase non-receptor type 7; assay: HePTP (PTPN7) phosphatase inhibitor potency, SAR follow-up, biochemical, set 2 (AID 449736); format: functional
[20] = molecular target: T2, Tyrosine-protein phosphatase non-receptor type 22; assay: SAR LYP1 Fluorescent Assay using OMFP substrate for In Vitro dose response studies - Set 2. [Related pubchem assays (depositor defined):AID1779, AID1784, AID2140, AID449726, AID488869]; format: functional
Mu-type opioid receptor [21] = molecular target: T5, Mu-type opioid receptor (Homo sapiens, UniProt P35372); assay: MOR antagonists, SAR follow-up, image-based (AID 2420); format: functional;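 also: compounds added before stimulation of receptor with agonist DAMGO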
T5 sequence (P35372 whole entry): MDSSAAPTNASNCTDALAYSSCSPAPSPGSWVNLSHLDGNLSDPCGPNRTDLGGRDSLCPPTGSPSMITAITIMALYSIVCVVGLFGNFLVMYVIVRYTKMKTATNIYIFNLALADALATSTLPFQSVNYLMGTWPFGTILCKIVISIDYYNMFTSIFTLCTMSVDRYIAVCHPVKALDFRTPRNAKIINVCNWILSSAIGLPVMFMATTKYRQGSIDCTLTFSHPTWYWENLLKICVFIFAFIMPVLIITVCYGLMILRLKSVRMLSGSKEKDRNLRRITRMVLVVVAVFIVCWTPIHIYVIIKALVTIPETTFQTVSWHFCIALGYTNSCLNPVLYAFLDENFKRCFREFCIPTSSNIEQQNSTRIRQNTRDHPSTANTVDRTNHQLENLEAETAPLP

[22] = molecular target: T6, Kappa-type opioid receptor (Homo sapiens, UniProt P41145); assay: kappa opioid receptor blockers, cell-based, luminescence, beta-arrestin, SAR follow-up (AID 2285); format: functional
T6 sequence (P41145 whole entry): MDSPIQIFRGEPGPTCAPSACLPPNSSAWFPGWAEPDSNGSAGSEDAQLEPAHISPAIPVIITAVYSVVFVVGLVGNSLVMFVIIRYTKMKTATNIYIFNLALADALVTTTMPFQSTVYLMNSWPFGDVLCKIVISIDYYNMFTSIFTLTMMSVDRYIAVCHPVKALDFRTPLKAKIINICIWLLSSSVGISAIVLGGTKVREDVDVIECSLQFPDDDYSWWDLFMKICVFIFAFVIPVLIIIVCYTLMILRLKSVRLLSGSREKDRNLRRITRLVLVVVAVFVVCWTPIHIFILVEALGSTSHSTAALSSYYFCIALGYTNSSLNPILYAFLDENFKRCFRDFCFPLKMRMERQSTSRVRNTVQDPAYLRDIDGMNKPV

[23] = molecular target: T7, Delta-type opioid receptor (Homo sapiens, UniProt P41143); assay: DOR agonists, SAR follow-up, image-based (AID 2370); format: functional
T7 sequence (P41143 whole entry): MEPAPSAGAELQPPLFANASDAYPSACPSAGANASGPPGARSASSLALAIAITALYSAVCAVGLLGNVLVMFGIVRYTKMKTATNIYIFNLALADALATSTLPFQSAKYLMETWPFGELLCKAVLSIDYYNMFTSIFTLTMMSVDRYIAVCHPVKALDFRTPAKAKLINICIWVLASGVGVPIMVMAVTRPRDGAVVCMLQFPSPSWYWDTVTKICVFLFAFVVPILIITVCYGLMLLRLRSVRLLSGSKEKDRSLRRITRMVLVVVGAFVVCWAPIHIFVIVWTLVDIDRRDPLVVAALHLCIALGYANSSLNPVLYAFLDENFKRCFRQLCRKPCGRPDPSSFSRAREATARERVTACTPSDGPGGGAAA

[24] = molecular target: T7, Delta-type opioid receptor; assay: DOR antagonists, SAR follow-up, image-based (AID 2357); format: functional
Mu-type opioid receptor [25] = molecular target: T5, Mu-type opioid receptor; assay: MOR agonists by imaging, SAR follow-up, image-based (AID 2352); format: functional
[26] = molecular target: T6, Kappa-type opioid receptor; assay: KOR antagonists by imaging, SAR follow-up, image-based (AID 2348); format: functional
[27] = molecular target: T6, Kappa-type opioid receptor; assay: KOR agonist analogs, imaging readout, SAR follow-up, image-based (AID 2359); format: functional
[28] = molecular target: T6, Kappa-type opioid receptor; assay: SAR analysis of small molecule antagonists of the kappa opioid receptor via a luminescent beta-arrestin assay - Set 5. [Related pubchem assays (depositor defined):AID1778, AID1785]; format: functional
[29] = molecular target: T6, Kappa-type opioid receptor; assay: SAR analysis of small molecule antagonists of the kappa opioid receptor via a luminescent beta-arrestin assay - Set 4. [Related pubchem assays (depositor defined):AID1777, AID1778, AID1785, AID1786, AID1966, AID2133, AID2136, AID2285]; format: functional

Chain of Large T antigen (P03070 whole entry): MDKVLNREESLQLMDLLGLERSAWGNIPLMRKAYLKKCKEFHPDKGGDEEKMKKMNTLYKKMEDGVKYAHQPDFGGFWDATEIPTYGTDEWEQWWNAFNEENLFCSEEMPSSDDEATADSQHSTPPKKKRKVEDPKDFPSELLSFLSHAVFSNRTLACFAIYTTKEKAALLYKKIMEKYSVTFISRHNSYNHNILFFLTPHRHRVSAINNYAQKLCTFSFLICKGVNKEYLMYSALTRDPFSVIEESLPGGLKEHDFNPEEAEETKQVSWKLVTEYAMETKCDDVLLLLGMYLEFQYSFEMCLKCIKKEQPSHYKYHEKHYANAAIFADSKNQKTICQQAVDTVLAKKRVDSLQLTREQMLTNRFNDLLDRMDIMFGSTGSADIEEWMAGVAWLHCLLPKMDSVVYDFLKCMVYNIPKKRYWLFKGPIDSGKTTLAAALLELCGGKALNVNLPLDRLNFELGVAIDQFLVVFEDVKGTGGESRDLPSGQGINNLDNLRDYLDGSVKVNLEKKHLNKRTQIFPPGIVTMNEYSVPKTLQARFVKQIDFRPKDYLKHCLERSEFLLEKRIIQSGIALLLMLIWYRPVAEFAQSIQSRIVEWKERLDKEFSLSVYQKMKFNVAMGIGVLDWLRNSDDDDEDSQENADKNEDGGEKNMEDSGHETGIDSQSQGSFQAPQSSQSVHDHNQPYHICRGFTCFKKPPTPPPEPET

IC50 (Large T antigen): 15.9 µM (active)
EC50 [1]: 88.5 µM (active)
EC50 [2]: 81.5 µM (active)
EC50 [3]: 85 µM (active)
Structure (SMILES): N#C/C(=C\c1coc2ccc(O)cc2c1=O)C(=O)/N=c1\[nH]c2ccccc2s1

IC50 [4]: 4.86 µM (active)
IC50 [5]: 12.6 µM (active)
IC50 [6]: 18.8 µM (active)
IC50 [7]: 1.65 µM (active)
IC50 [8]: 8.8 µM (active)
IC50 [10]: 2.66 µM (active)
IC50 [11]: 7.71 µM (active)
IC50 [12]: > 50 µM (inactive)
IC50 [13]: 15.7 µM (active)
IC50 [14]: 20.5 µM (active)
IC50 [15]: 2.61 µM (active)
IC50 [16]: 13.7 µM (active)
IC50 [17]: 14.6 µM (active)
IC50 [18]: 1.6 µM (active)
IC50 [19]: 0.481 µM (active)
IC50 [20]: 3.15 µM (active)
Structure (SMILES): N#C/C(=C/c1ccc(OCc2ccc(C(=O)O)cc2)c(Br)c1)c1cccc(F)c1
CC50 [9]: > 50 µM (active)

IC50 (Mu-type opioid receptor [21]): > 32 µM (inactive)
IC50 [22]: 3.54 µM (active)
EC50 [23]: 30.7 µM (inactive)
IC50 [24]: > 32 µM (inactive)
EC50 (Mu-type opioid receptor [25]): 25.3 µM (inactive)
IC50 [26]: 3.62 µM (active)
EC50 [27]: > 32 µM (inactive)
Structure (SMILES): CCC(=NNc1ccnc2cc(Cl)ccc12)c1ccc(O)cc1

IC50 [28]: 0.452 µM (active)
IC50 [29]: 1.66 µM (active)
Structure (SMILES): COc1ccc(CN(CCNC(=O)c2ccc(CNS(=O)(=O)Cc3ccccc3)cc2)C(C)C)cc1
